Source: patent US20240270821A1, “GIP/GLP1/GCG TRI-RECEPTOR AGONISTS AND USES THEREOF” (priority 2023, published 2024)
Starred links: 1 amine or outer side, 2 acyl side, 3 side chain; linkers in the order of their positions; H or OH if unused. Non-standard residues stand in square brackets, D forms with d. Groups on a side chain read outwards from the residue. No end group written: not given here. *: point of attachment. C18 diacid = O=C(O)CCCCCCCCCCCCCCCCC(=O)*; γGlu = O=C(O)[C@H](CCC(=O)[*:2])N[*:1]; αMe4Pal = C[C@](N)(Cc1ccncc1)C(=O)O; αMeY = C[C@](N)(Cc1ccc(O)cc1)C(=O)O; 4Pal = N[C@@H](Cc1ccncc1)C(=O)O; αMeL = CC(C)C[C@](C)(N)C(=O)O; Orn = NCCC[C@H](N)C(=O)O; AEEA = NCCOCCOCC(=O)O; Aib = CC(C)(N)C(=O)O

Assays:
Format in all cases: cell-based
hGIPR [1] = target: T1, hGIPR (Homo sapiens, UniProt P48546); test: Functional cAMP activity in the presence of 1% HSA; conditions: read-out: cAMP Rel EC50, hGIPR
T1 sequence (P48546 22-466): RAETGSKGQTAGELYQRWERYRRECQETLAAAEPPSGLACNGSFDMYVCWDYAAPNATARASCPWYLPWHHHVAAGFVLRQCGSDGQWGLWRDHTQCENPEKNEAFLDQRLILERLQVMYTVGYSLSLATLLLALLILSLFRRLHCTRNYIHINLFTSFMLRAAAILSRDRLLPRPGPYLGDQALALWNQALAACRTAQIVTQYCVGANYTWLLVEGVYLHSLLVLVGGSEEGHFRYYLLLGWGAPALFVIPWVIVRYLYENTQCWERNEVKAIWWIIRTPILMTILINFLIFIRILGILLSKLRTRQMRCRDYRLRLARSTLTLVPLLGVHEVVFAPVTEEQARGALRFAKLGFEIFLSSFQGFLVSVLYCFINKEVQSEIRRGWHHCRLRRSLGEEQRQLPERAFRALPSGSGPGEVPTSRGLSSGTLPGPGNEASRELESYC

hGLP-1R [2] = target: T2, hGLP-1R (Homo sapiens, UniProt P43220); test: Functional cAMP activity in the presence of 1% HSA; conditions: read-out: cAMP Rel EC50, hGLP-1R
T2 sequence (P43220 24-463): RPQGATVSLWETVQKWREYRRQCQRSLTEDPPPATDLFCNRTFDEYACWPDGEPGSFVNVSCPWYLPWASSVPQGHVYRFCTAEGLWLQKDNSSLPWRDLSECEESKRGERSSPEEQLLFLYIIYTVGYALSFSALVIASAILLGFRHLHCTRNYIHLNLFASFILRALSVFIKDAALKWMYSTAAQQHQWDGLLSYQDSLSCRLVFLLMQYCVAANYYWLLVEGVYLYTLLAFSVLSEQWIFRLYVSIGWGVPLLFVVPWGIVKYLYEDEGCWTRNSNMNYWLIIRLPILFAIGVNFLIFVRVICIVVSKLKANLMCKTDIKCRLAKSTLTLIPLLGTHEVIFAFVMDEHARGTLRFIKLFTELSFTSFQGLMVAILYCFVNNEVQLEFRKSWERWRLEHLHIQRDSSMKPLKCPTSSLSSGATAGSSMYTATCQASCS

human GcgR = human GcgR (Homo sapiens, UniProt P47871); test: Functional cAMP activity in the presence of 1% HSA; conditions: read-out: cAMP Rel EC50, hGcgR
Chain of human GcgR (P47871 26-477): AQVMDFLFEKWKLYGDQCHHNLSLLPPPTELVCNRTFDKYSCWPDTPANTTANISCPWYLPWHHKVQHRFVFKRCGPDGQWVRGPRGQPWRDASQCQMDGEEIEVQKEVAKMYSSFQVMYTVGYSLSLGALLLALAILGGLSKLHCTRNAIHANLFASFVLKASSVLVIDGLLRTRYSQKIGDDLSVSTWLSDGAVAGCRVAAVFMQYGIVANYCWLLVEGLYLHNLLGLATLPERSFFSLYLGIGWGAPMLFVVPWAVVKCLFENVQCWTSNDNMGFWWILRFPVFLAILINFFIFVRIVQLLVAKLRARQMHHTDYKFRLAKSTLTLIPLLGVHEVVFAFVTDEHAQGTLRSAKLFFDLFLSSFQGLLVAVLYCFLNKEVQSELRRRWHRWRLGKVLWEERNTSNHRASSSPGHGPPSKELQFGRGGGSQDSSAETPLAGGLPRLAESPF

hGIPR [3] = target: T1, hGIPR; test: Functional cAMP activation in the presence of 0.1% casein (no HSA); conditions: in the presence of 0.1% casein (no HSA); geometric mean; read-out: Relative cAMP EC50, hGIPR;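 on Relative cAMP EC50, hGIPR: intracellular cAMP rise after 30 min at 37 °C read by HTRF against a standard curve, scaled between buffer alone (0%) and top control ligand concentration (100%), four-parameter fit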;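 on Relative cAMP EC50, hGLP-1R: intracellular cAMP rise after 30 min at 37 °C read by HTRF, normalized between buffer only (0%) and maximal control ligand (100%), four-parameter variable-slope fit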;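 on Relative cAMP EC50, hGcgR: intracellular cAMP rise after 30 min at 37 °C, read by HTRF against a cAMP standard curve, scaled from buffer only (0%) to maximal control ligand response (100%)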
hGLP-1R [4] = target: T2, hGLP-1R; test: as above; conditions: in the presence of 0.1% casein (no HSA); geometric mean; read-out: Relative cAMP EC50, hGLP-1R
hGcgR = hGcgR (Homo sapiens, UniProt P47871); test: as above; conditions: in the presence of 0.1% casein (no HSA); geometric mean; read-out: Relative cAMP EC50, hGcgR;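 further: intracellular cAMP rise after 30 min at 37 °C, read by HTRF against a cAMP standard curve, scaled from buffer only (0%) to maximal control ligand response (100%)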
Chain of hGcgR (P47871 26-477): as above

| Substance | EC50 (hGIPR [1]) [nM] | EC50 (hGLP-1R [2]) [nM] | EC50 (human GcgR) [nM] | EC50 (hGIPR [3]) [nM] | EC50 (hGLP-1R [4]) [nM] | EC50 (hGcgR) [nM] |
| --- | --- | --- | --- | --- | --- | --- |
| Y[Aib]QGTFTSD[4Pal]SQ[αMeL]LD[Orn]K([AEEA-γGlu-C18 diacid])AQ[αMe4Pal]QFIE[αMeY]LIE[Aib]GPSSGEPPPSGSEE-NH2 [Example 1098] | 31.2 | 184 | 994 | 0.201 | 1.22 | 6.2 |
| Y[Aib]QGTFTSD[4Pal]SQ[αMeL]LD[Orn]K([AEEA-γGlu-γGlu-C18 diacid])AQ[αMe4Pal]AFIEYLIE[dA]GPSSGAPPPSGS-NH2 [Example 1016] | 30.6 | 156 | 626 | 0.218 | 1.55 | 5.57 |
| Y[Aib]QGTFTSD[4Pal]SQ[αMeL]LD[Orn]K([dE-γGlu-C18 diacid])AQ[αMe4Pal]AFIEYLIA[Aib]GPSSGEPPPSGSEE-NH2 [Example 1101] | 6.31 | 246 | 827 | 0.0592 | 1.75 | 4.72 |
| Y[Aib]QGTFTSD[4Pal]SQ[αMeL]LD[Orn]K([dE-γGlu-C18 diacid])AQ[αMe4Pal]AFIQ[αMeY]LLEGGPSSGAPPPSGSEEE-NH2 [Example 1083] | 20.5 | 547 | 1030 | 0.328 | 7.76 | 15 |
| Y[Aib]QGTFTSD[4Pal]SQ[αMeL]LD[Orn]K([dE-γGlu-C18 diacid])AQ[αMe4Pal]QFIE[αMeY]LIAGGPSSGAPPPSGSEEE-NH2 [Example 1081] | 8.44 | 151 | 2130 | 0.105 | 1.29 | 19.7 |
| Y[Aib]QGTFTSD[4Pal]SQ[αMeL]LD[Orn]K([dE-γGlu-C18 diacid])AQ[αMe4Pal]QFIE[αMeY]LIA[Aib]GPSSGEPPPSGSEE-NH2 [Example 1106] | 4.23 | 119 | 1030 | 0.0312 | 0.87 | 7.71 |
| Y[Aib]QGTFTSD[4Pal]SQ[αMeL]LD[Orn]K([γGlu-γGlu-C18 diacid])AQ[αMe4Pal]AFIEYLIAGGPSSGAPPPSGSEE-NH2 [Example 1031] | 17.3 | 152 | 1200 | 0.146 | 1.15 | 6.98 |
| Y[Aib]QGTFTSD[4Pal]SQ[αMeL]LD[Orn]K([γGlu-γGlu-C18 diacid])AQ[αMe4Pal]AFIEYLIE[Aib]GPSSGAPPPSGS-NH2 [Example 935] | 16.9 | 172 | 659 | 0.123 | 1.71 | 4.04 |
| Y[Aib]QGTFTSD[4Pal]SR[αMeL]LDKK([AEEA-γGlu-C18 diacid])AQ[αMe4Pal]AFIEYLIEGGESSGAPPPSGS-NH2 [Example 792] | 108 | 619 | 376 | 0.55 | 2.99 | 1.91 |
| Y[Aib]QGTFTSD[4Pal]SR[αMeL]LDKK([AEEA-γGlu-C18 diacid])AQ[αMe4Pal]AFIE[αMe4Pal]LIEGGPSSGAPPPSGS-NH2 [Example 950] | 18.1 | 328 | 327 | 0.18 | 2.5 | 1.92 |
| Y[Aib]QGTFTSD[4Pal]SR[αMeL]LDKK([AEEA-γGlu-C18 diacid])AQ[αMe4Pal]AFIE[αMeY]LIEGGPSSGAPPPSGS-NH2 [Example 843] | 32.8 | 135 | 367 | 0.334 | 0.874 | 3.41 |
| Y[Aib]QGTFTSD[4Pal]SR[αMeL]LDKK([γGlu-γGlu-C18 diacid])AQ[αMe4Pal]AFIE[αMe4Pal]LIEGGPSSGAPPPSGSEE-NH2 [Example 959] | 24.5 | 503 | 316 | 0.217 | 5.06 | 2.61 |
| Y[Aib]QGTFTSD[4Pal]S[Orn][αMeL]LDKK([γGlu-γGlu-C18 diacid])AQ[Aib]AFIE[αMeY]LLEGGPSSGAPPPSGSEE-NH2 [Example 944] | 37.2 | 985 | 1840 | 0.216 | 4.86 | 6.16 |
